Earlier results on 2 molecules are cited in patent publication US11992479B2, “R-fadrozole for use in the treatment of aldostonerism” (priority 2018, dated 2024).

Molecules are shown by their SMILES. Structures can show the parent of a compound that is named as a salt.

One data set concerns basal plasma aldosterone. The following applies: twice daily, healthy male subjects; cited from earlier work.
Another data set concerns DOC. The following applies: PA patients, cited from earlier work.
The conditions of data set [1]: phase I study; cited from earlier work.
The next data set deals with plasma aldosterone. The settings on record: 0.5 and 1.0 mg twice a day, PA patients; cited from earlier work.

Regarding `N#Cc1ccc(C2CCCc3cncn32)cc1` (racemic) [Fadrozole hydrochloride], in the data set on basal plasma aldosterone, the “effect on basal plasma aldosterone levels” value was “only modestly affect basal plasma aldosterone levels” and the “effect on serum potassium” value is recorded as “without significantly elevating serum potassium”.
On to `N#Cc1ccc([C@H]2CCc3cncn32)c(F)c1` [LCI699], for which the DOC mean level in the data set on DOC (1.0 mg twice-daily dose) is 9.8 ng/mL. Also, the “increase of DOC” value with DOC (twice-daily dosing) is “over 700%”. For the same molecule, in data set [1], the elimination half-life entry is listed as “approximately 4 hours” and the “time to peak concentration” value is 1 h. In the data set with plasma aldosterone, the “decrease of plasma aldosterone” value is on record as 70-80%.
